# Like-named read-outs stand apart in the source and are kept apart here.
# Key:
# [1] = system: Beet Armyworm (Spodoptera exigua, LAPHEG); assay: Bioassays on Beet Armyworm (BAW), 128-well diet tray assay; type: in vivo; conditions: Spodoptera exigua
# Outline: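 Larvae at second instar are exposed on dried, compound-treated diet (50 μg/cm^2, delivered in 90:10 acetone-water) in eight replicate wells. After five to seven days at 25° C., 14:10 light-dark, percent mortality in each well is scored and the eight wells averaged.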
# [2] = system: Cabbage Looper (Trichoplusia ni, TRIPNI); assay: Bioassays on Cabbage Looper (CL), 128-well diet tray assay; type: in vivo; conditions: Trichoplusia ni
# Outline: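 Each of eight wells receives artificial diet treated at 50 μg/cm^2 with the test molecule, then one to five second-instar larvae. Incubation runs five to seven days at 25° C with a 14:10 light-dark cycle under vented covers. Mortality is scored per well as a percentage and averaged.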
# [3] = Beet Armyworm, Table ABC / ABC-DP rating, read-out: BAW rating
# [4] = Cabbage Looper, Table ABC / ABC-DP rating, read-out: CL rating
# [5] = Beet Armyworm, rating class, read-out: BAW
# [6] = Cabbage Looper, rating class, read-out: CL
Compound,"pest or weed control at 50 µg/cm2 [1, 3] [%]","pest or weed control at 50 µg/cm2 [2, 4] [%]","pest or weed control at 50 µg/cm2 [1, 5] [%]","pest or weed control at 50 µg/cm2 [2, 6] [%]",other results
"O=C(NCC(F)(F)C(F)(F)F)c1c(Cl)ccc(NC(=O)[C@H]2[C@H](c3ccc(F)c(Cl)c3)C2(Cl)Cl)c1F [F2073, 6-Chloro-3-((1R,3R)-2,2-dichloro-3-(3-chloro-4-fluorophenyl)cyclopropane-1-carboxamido)-2-fluoro-N-(2,2,3,3,3-pentafluoropropyl)benzamide]",50 to 100,50 to 100,,,
"CNc1c(F)ccc(NC(=O)c2cc(NC(=O)[C@H]3[C@H](c4ccc(Cl)c(Cl)c4)C3(Cl)Cl)ccc2Cl)c1F [F1550, 2-Chloro-5-((1R,3R)-2,2-dichloro-3-(3,4-dichlorophenyl)cyclopropane-1-carboxamido)-N-(2,4-difluoro-3-(methylamino)phenyl)benzamide]",,,50 to 100,50 to 100,
"CC(=O)Nc1c(F)ccc(NC(=O)c2cc(NC(=O)[C@H]3[C@H](c4ccc(Cl)c(Cl)c4)C3(Cl)Cl)ccc2F)c1F [F1493, N-(3-Acetamido-2,4-difluorophenyl)-5-((1R,3R)-2,2-dichloro-3-(3,4-dichlorophenyl)cyclopropane-1-carboxamido)-2-fluorobenzamide]",,,50 to 100,50 to 100,
"Cc1cc(NC(=O)[C@H]2[C@H](c3cc(Cl)c(Cl)c(Cl)c3)C2(Cl)Cl)cc(C(=O)Nc2c(F)ccc(N)c2F)c1Cl [F1427, N-(3-Amino-2,6-difluorophenyl)-2-chloro-5-((1R,3R)-2,2-dichloro-3-(3,4,5-trichlorophenyl)cyclopropane-1-carboxamido)-3-methylbenzamide]",,,50 to 100,50 to 100,
"O=C(Nc1cccc(F)c1[N+](=O)[O-])c1cc(NC(=O)[C@H]2[C@H](c3ccc(F)c(Cl)c3)C2(Cl)Cl)ccc1Cl [F1081, 2-Chloro-5-((1R,3R)-2,2-dichloro-3-(3-chloro-4-fluorophenyl)cyclopropane-1-carboxamido)-N-(3-fluoro-2-nitrophenyl)benzamide]",,,,,"pest or weed control at 50 µg/cm2 ([1]; Table ABC: Biological Results, species BAW, read-out: BAW): 50 to 100%; pest or weed control at 50 µg/cm2 ([2]; Table ABC: Biological Results, species CL, read-out: CL): 50 to 100%"
"Cc1cccc(N(C)NC(=O)c2cc(NC(=O)[C@H]3[C@H](c4cc(Cl)cc(Cl)c4)C3(Cl)Cl)ccc2Cl)c1 (relative stereo) [F2574, trans-2,2-Dichloro-N-(4-chloro-3-(2-methyl-2-(m-tolyl)hydrazine-1-carbonyl)phenyl)-3-(3,5-dichlorophenyl)cyclopropane-1-carboxamide]",50 to 100,50 to 100,,,"mortality at 50 µg/cm2 ([1]; 168 h, second instar larvae, 50 μg/cm^2 of test molecule on artificial diet, 25° C., five to seven days, average of eight wells, read-out: BAW % Control (or Mortality) rating): 50 to 100%; mortality at 50 µg/cm2 ([2]; 168 h, second instar larvae, 50 μg/cm^2 of test molecule on artificial diet, 25° C., five to seven days, average of eight wells, read-out: CL % Control (or Mortality) rating): 50 to 100%"
"O=C(Nc1cc(NC(=O)C(F)(F)C(F)F)c(F)cc1F)c1cc(NC(=O)[C@H]2[C@H](c3ccc(Cl)c(Cl)c3)C2(Cl)Cl)ccc1Cl [F1565, 2-Chloro-5-((1R,3R)-2,2-dichloro-3-(3,4-dichlorophenyl)cyclopropane-1-carboxamido)-N-(2,4-difluoro-5-(2,2,3,3-tetrafluoropropanamido)phenyl)benzamide]",,,50 to 100,50 to 100,
"CN(NC(=O)c1cc(NC(=O)[C@H]2[C@H](c3cc(Cl)cc(Cl)c3)C2(Cl)Cl)ccc1Cl)C(=O)C(F)(F)F (relative stereo) [F2523, trans-2,2-Dichloro-N-(4-chloro-3-(2-methyl-2-(2,2,2-trifluoroacetyl)hydrazine-1-carbonyl)phenyl)-3-(3,5-dichlorophenyl)cyclopropane-1-carboxamide]",50 to 100,50 to 100,,,
"O=C(Nc1ccc(F)cc1F)c1cc(NC(=O)[C@H]2[C@H](c3ccc(F)c(F)c3)C2(Cl)Cl)ccc1Cl [F1750, 2-Chloro-5-((1R,3R)-2,2-dichloro-3-(3,4-difluorophenyl)cyclopropane-1-carboxamido)-N-(2,4-difluorophenyl)benzamide]",,,50 to 100,50 to 100,

# From US20250228239A1, “MOLECULES HAVING PESTICIDAL UTILITY, AND INTERMEDIATES, COMPOSITIONS, AND PROCESSES, RELATED THERETO” (priority 2024, published 2025)
